Measured values reported in US8124788B2, “Spirocyclic cyclohexane compounds with analgesic activity” (Gruenenthal GmbH, priority 2006, dated 2012).

What follows are molecules tested against T1, human μ opiate receptor (Homo sapiens, UniProt P35372) (assay: Affinity for the human μ opiate receptor ([3H]-naloxone displacement, CHO-K1 membrane preparation, SPA)). Conditions: 1 μM test substance; displacement of [3H]-naloxone.
T1 construct: purchased PerkinElmer Life Sciences, Zaventem, Belgium RB-HOM; host or cells: CHO-K1 cells (recombinant expression)
Format: binding
Description: The receptor affinity for the human μ opiate receptor is determined in a homogeneous set-up in microtitre plates. For this purpose, dilution series of the substances to be tested are incubated with a receptor membrane preparation (15-40 μg of protein/250 μl of incubation batch) of CHO-K1 cells which express the human μ opiate receptor (RB-HOM receptor membrane preparation from PerkinElmer Life Sciences, Zaventem, Belgium) in the presence of 1 nmol/l of the radioactive ligand [^3H]-naloxone (NET719, PerkinElmer Life Sciences, Zaventem, Belgium) and 1 mg of WGA-SPA-Beads (wheat germ agglutinin SPA beads from Amersham/Pharmacia, Freiburg, Germany) in a total volume of 250 μl for 90 minutes at room temperature. 50 mmol/l of Tris-HCl supplemented with 0.06% of bovine serum albumin are used as the incubation buffer. 100 μmol/l of naloxone are additionally added for determination of the non-specific binding. After the end of the ninety-minute incubation time, the microtitre plates are centrifuged for 20 minutes at 1,000 g and the radioactivity is measured in a β-counter (Microbeta-Trilum, PerkinElmer Wallac, Freiburg, Germany). The percentage displacement of the radioactive ligand from its binding to the human μ opiate receptor is determined at a concentration of the test substances of 1 μmol/l and stated as the percentage inhibition of the specific binding. Starting from the percentage displacement by various concentrations of the test substances, IC50 inhibitory concentrations which cause a 50 percent displacement of the radioactive ligand are calculated. By conversion by means of the Cheng-Prusoff relationship, Ki values for the test substances are obtained.

T1 sequence (P35372 whole entry): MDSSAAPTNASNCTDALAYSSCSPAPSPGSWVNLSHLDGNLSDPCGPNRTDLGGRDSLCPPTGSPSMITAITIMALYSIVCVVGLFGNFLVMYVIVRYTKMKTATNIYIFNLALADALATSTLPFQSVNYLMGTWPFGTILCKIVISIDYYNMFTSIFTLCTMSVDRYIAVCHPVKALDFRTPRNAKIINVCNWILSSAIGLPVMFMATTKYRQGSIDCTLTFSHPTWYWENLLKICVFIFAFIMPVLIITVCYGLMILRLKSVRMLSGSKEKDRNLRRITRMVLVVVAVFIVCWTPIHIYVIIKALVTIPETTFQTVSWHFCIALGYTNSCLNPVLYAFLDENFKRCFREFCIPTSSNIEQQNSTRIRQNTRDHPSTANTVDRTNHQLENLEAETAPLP

Row | Compound | μ opioid receptor [1 μM], % inhibition
1 | CC1Cc2c([nH]c3ccc(F)cc23)C2(CCC(C(c3ccc(Cl)cc3)N(C)C)CC2)O1 (stereo not shown) [Compound 55, 6-Fluoro-3-methyl-1,1-[3-(dimethylamino-(4-chlorophenyl) -methyl)-penta-methylene]-1,3,4,9-tetrahydropyrano[3,4-b]indole] | 58%

Same assay, conditions: 1 μM test substance; displacement of [3H]-naloxone; read-out: μ opioid receptor [1 μM], % inhibition

Row | Compound | inhibition at 1 µM
2 | CN(C)C(c1cccc(F)c1)C1CCC2(CC1)OCCc1c2[nH]c2ccc(F)cc12 (stereo not shown) [Compound 36, 6-Fluoro-1,1-[3-(dimethylamino-(3-fluorophenyl)-methyl)-pentamethylene]-1,3,4,9-tetrahydropyrano[3,4-b]indole] | 102%

Same assay, conditions: Cheng-Prusoff conversion from IC50; read-out: μ opioid receptor, Ki

Row | Compound | Ki
3 | CN(C)C(c1cccc(F)c1)C1CCC2(CC1)OCCc1c2[nH]c2ccc(F)cc12 (stereo not shown) [Compound 36, 6-Fluoro-1,1-[3-(dimethylamino-(3-fluorophenyl)-methyl)-pentamethylene]-1,3,4,9-tetrahydropyrano[3,4-b]indole] | 46 nM

Same assay, conditions: compounds prepared via automated synthesis; single measurements at a test concentration of 1 μM

Row | Compound | μ opioid receptor [1 μmol], % inhibition
4 | COc1cccc(CC(=O)N2CCc3c([nH]c4ccccc34)C23CCC(C(c2cccc(F)c2)N(C)C)CC3)c1 (stereo not shown) [Compound 126, 2-[(3-methoxyphenyl)acetyl]-{1,1-[3-(dimethylamino-(3-fluorophenyl)methyl)-pentamethylene]-3,4-dihydro-1H-2,9-diazafluorene}] | 50%
5 | COc1cccc(CC(=O)N2CCc3c([nH]c4ccccc34)C23CCC(C(c2ccccc2)N(C)C)CC3)c1 (stereo not shown) [Compound 136, 2-[(3-methoxyphenyl)acetyl]-{1,1-[3-(dimethylamino-phenylmethyl)-pentamethylene]-3,4-dihydro-1H-2,9-diazafluorene}] | 75%
6 | CN(C)C(c1cccc(F)c1)C1CCC2(CC1)c1[nH]c3ccccc3c1CCN2C(=O)Cc1ccc(F)cc1 (stereo not shown) [Compound 116, 2-[(4-fluorophenyl)acetyl]-{1,1-[3-(dimethylamino-(3-fluorophenyl)methyl)-pentamethylene]-3,4-dihydro-1H-2,9-diazafluorene}] | 20%
7 | Cc1ccc2sc(C(=O)N3CCc4c([nH]c5ccccc45)C34CCC(C(c3cccc(F)c3)N(C)C)CC4)cc2c1 (stereo not shown) [Compound 128, 2-[5-methylbenzothien-2-ylcarbonyl]-{1,1-[3-(dimethylamino-(3-fluorophenyl)methyl)-pentamethylene]-3,4-dihydro-1H-2,9-diazafluorene}] | 16%
8 | CN(C)C(c1ccc(F)cc1)C1CCC2(CC1)c1[nH]c3ccccc3c1CCN2C(=O)C=Cc1ccccc1 (stereo not shown) [Compound 86, 1-{1,1-[3-(dimethylamino-(4-fluorophenyl)methyl) -pentamethylene]-3,4-dihydro-1H-2,9-diazafluoren-2-yl}-3-phenylprop-2-en-1-one] | 12%
9 | COCC(=O)N1CCc2c([nH]c3ccccc23)C12CCC(C(c1cccc(F)c1)N(C)C)CC2 (stereo not shown) [Compound 92, 2-(methoxyacetyl)-{1,1-[3-(dimethylamino-(3-fluorophenyl)methyl)-pentamethylene]-3,4-dihydro-1H-2,9-diazafluorene}] | 22%
10 | CN(C)C(c1ccc(Cl)cc1)C1CCC2(CC1)c1[nH]c3ccccc3c1CCN2C(=O)c1cc2ccccc2s1 (stereo not shown) [Compound 78, 2-(1-benzothien-2-ylcarbonyl)-{1,1-[3-(dimethylamino-(4-chlorophenyl)-methyl)-pentamethylene]-3,4-dihydro-1H-2,9-diazafluorene}] | 11%
11 | CCCCC(CC)C(=O)N1CCc2c([nH]c3ccccc23)C12CCC(C(c1cccc(F)c1)N(C)C)CC2 (stereo not shown) [Compound 111, 2-(2-ethylhexanoyl)-{1,1-[3-(dimethylamino-(3-fluorophenyl)methyl)-pentamethylene]-3,4-dihydro-1H-2,9-diazafluorene}] | 13%
12 | CN(C)C(c1ccc(Cl)cc1)C1CCC2(CC1)c1[nH]c3ccccc3c1CCN2C(=O)Cc1cccs1 (stereo not shown) [Compound 98, 2-(2-thienylacetyl)-{1,1-[3-(dimethylamino-(4-chlorophenyl)methyl)-pentamethylene]-3,4-dihydro-1H-2,9-diazafluorene}] | 21%
13 | CCCCC(CC)C(=O)N1CCc2c([nH]c3ccccc23)C12CCC(C(c1ccccc1)N(C)C)CC2 (stereo not shown) [Compound 100, 2-(2-ethylhexanoyl)-{1,1-[3-(dimethylamino-phenylmethyl)-pentamethylene]-3,4-dihydro-1H-2,9-diazafluorene}] | 65%
14 | CN(C)C(c1ccc(Cl)cc1)C1CCC2(CC1)c1[nH]c3ccccc3c1CCN2C(=O)CCC1CCCC1 (stereo not shown) [Compound 95, 2-(3-cyclopentylpropanoyl)-{1,1-[3-(dimethylamino-(4-chlorophenyl)-methyl)-pentamethylene]-3,4-dihydro-1H-2,9-diazafluorene}] | 18%
15 | CN(C)C(c1cccc(F)c1)C1CCC2(CC1)c1[nH]c3ccccc3c1CCN2C(=O)C1CC1 (stereo not shown) [Compound 91, 2-(cyclopropylcarbonyl)-{1,1-[3-(dimethylamino-(3-fluorophenyl)methyl)-pentamethylene]-3,4-dihydro-1H-2,9-diazafluorene}] | 25%
16 | CC(=Cc1ccccc1)C(=O)N1CCc2c([nH]c3ccccc23)C12CCC(C(c1ccc(F)cc1)N(C)C)CC2 (stereo not shown) [Compound 64, 1-{1,1-[3-(dimethylamino-(4-fluorophenyl)methyl) -pentamethylene]-3,4-dihydro-1H-2,9-diazafluoren-2-yl}-2-methyl-3-phenylprop-2-en-1-one] | 15%
17 | CN(C)C(c1ccccc1)C1CCC2(CC1)c1[nH]c3ccccc3c1CCN2C(=O)C=Cc1ccccc1 (stereo not shown) [Compound 80, 1-{1,1-[3-(dimethylamino-phenylmethyl)-pentamethylene]-3,4-dihydro-1H-2,9-diazafluoren-2-yl}-3-phenylprop-2-en-1-one] | 41%
18 | CC(C)CC(=O)N1CCc2c([nH]c3ccccc23)C12CCC(C(c1ccc(Cl)cc1)N(C)C)CC2 (stereo not shown) [Compound 134, 1-{1,1-[3-(dimethylamino-(4-chlorophenyl)methyl) -pentamethylene]-3,4-dihydro-1H-2,9-diazafluoren-2-yl}-3-methylbutan-1-one] | 47%
19 | CC(=O)N1CCc2c([nH]c3ccccc23)C12CCC(C(c1cccc(F)c1)N(C)C)CC2 (stereo not shown) [Compound 89, acetyl-{1,1-[3-(dimethylamino-(3-fluorophenyl)methyl) -pentamethylene]-3,4-dihydro-1H-2,9-diazafluorene}] | 10%
20 | CCCCC(CC)C(=O)N1CCc2c([nH]c3ccccc23)C12CCC(C(c1ccc(Cl)cc1)N(C)C)CC2 (stereo not shown) [Compound 118, 2-(2-ethylhexanoyl)-{1,1-[3-(dimethylamino-(4-chlorophenyl)methyl)-pentamethylene]-3,4-dihydro-1H-2,9-diazafluorene}] | 35%
21 | COc1ccc(CC(=O)N2CCc3c([nH]c4ccccc34)C23CCC(C(c2ccc(F)cc2)N(C)C)CC3)cc1OC (stereo not shown) [Compound 63, 2-[(3,4-dimethoxyphenyl)acetyl]-{1,1-[3-(dimethylamino-(4-fluorophenyl)methyl)-pentamethylene]-3,4-dihydro-1H-2,9-diazafluorene}] | 29%
22 | CC(C)C(=O)N1CCc2c([nH]c3ccccc23)C12CCC(C(c1ccccc1)N(C)C)CC2 (stereo not shown) [Compound 101, 2-isobutyryl-{1,1-[3-(dimethylamino-phenylmethyl) -pentamethylene]-3,4-dihydro-1H-2,9-diazafluorene}] | 74%
23 | CN(C)C(c1ccc(Cl)cc1)C1CCC2(CC1)c1[nH]c3ccccc3c1CCN2C(=O)CC(C)(C)C (stereo not shown) [Compound 73, 1-{1,1-[3-(dimethylamino-(4-chlorophenyl)methyl) -pentamethylene]-3,4-dihydro-1H-2,9-diazafluoren-2-yl}-3,3-dimethylbutan-1-one] | 24%
24 | CCC(CC)C(=O)N1CCc2c([nH]c3ccccc23)C12CCC(C(c1ccc(F)cc1)N(C)C)CC2 (stereo not shown) [Compound 139, 1-{1,1-[3-(dimethylamino-(4-fluorophenyl)methyl) -pentamethylene]-3,4-dihydro-1H-2,9-diazafluoren-2-yl}-2-ethylbutan-1-one] | 25%
25 | CC(=Cc1ccccc1)C(=O)N1CCc2c([nH]c3ccccc23)C12CCC(C(c1ccccc1)N(C)C)CC2 (stereo not shown) [Compound 58, 1-{1,1-[3-(dimethylamino-phenylmethyl)-pentamethylene]-3,4-dihydro-1H-2,9-diazafluoren-2-yl}-2-methyl-3-phenylprop-2-en-1-one] | 50%
